Source: the kinase profiling compilation of Christmann-Franck et al. (2016)

Experiments:
Experiment in all cases: radiometric filter-binding kinase assay
MARK4 (human) = MARK4 (human) (UniProt Q96L34)
[1] = tested on: RPS6KB1 (human), P23443 [T412E]
CHEK1 (human) = CHEK1 (human) (UniProt O14757)
[2] = tested on: PAK2 (human), Q13177 [T402E]
GCK (human) = GCK (human) (UniProt Q12851)
CDK2 CCNA2 (human) = CDK2 CCNA2 (human) (UniProt P20248+P24941)
NEK6 (human) = NEK6 (human) (UniProt Q9HC98)
STK3 (human) = STK3 (human) (UniProt Q13188)
RPS6KA5 KD1 KD2 (human) = RPS6KA5 KD1 KD2 (human) (UniProt O75582)
MAP2K1 (human) = MAP2K1 (human) (UniProt Q02750)
MAP2K2 (human) = MAP2K2 (human) (UniProt P36507)
MYLK (human) = MYLK (human) (UniProt Q15746)
TBK1 (human) = TBK1 (human) (UniProt Q9UHD2)
INSRR (human) = INSRR (human) (UniProt P14616)
INSRR (human), sequence (P14616 whole entry, looked up): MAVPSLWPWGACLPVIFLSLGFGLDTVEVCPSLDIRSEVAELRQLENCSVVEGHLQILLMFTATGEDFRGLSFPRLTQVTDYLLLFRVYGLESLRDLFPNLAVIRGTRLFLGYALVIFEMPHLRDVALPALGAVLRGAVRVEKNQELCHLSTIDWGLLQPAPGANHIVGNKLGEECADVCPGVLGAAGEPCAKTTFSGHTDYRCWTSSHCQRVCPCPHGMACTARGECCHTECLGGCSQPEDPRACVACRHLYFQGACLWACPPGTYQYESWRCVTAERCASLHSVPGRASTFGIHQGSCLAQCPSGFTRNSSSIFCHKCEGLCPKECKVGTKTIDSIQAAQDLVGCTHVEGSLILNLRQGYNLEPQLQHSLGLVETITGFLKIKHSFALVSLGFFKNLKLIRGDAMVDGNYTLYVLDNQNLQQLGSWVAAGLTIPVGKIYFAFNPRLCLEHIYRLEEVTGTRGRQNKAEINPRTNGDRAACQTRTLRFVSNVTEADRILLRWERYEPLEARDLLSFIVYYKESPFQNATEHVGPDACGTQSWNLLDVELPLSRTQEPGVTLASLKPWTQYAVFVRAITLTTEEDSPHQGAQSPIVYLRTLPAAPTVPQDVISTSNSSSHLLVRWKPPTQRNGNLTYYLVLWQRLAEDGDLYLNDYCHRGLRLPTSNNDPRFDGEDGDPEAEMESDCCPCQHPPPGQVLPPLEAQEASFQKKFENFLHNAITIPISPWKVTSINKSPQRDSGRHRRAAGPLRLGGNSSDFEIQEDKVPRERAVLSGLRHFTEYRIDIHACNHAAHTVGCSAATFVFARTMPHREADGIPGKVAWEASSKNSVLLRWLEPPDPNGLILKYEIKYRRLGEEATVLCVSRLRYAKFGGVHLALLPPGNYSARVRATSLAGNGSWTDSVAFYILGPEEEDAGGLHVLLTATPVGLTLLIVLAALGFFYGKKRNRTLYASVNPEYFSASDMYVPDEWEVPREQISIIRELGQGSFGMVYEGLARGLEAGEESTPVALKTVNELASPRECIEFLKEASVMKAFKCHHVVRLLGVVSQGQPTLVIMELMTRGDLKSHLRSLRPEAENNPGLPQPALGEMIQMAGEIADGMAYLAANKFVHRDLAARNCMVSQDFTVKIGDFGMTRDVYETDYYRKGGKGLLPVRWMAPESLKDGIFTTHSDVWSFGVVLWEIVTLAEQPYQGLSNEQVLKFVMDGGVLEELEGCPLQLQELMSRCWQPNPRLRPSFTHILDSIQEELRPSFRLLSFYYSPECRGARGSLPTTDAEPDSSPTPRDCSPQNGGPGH

YES1 (human) = YES1 (human) (UniProt P07947)
SRPK1 (human) = SRPK1 (human) (UniProt Q96SB4)
PIM1 (human) = PIM1 (human) (UniProt P11309)
PIM1 (human), sequence (P11309 whole entry, looked up): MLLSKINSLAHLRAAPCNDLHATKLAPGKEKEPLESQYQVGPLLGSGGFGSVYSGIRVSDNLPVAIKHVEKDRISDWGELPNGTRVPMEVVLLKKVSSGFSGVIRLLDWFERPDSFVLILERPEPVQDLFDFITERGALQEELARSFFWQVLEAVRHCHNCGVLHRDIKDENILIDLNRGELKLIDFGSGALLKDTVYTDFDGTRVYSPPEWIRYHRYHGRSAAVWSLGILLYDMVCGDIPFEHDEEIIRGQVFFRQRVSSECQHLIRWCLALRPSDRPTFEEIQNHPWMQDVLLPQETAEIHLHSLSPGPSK

PIM2 (human) = PIM2 (human) (UniProt Q9P1W9)
EPHB1 (human) = EPHB1 (human) (UniProt P54762)
EPHB4 (human) = EPHB4 (human) (UniProt P54760)
MKNK2 (human) = MKNK2 (human) (UniProt Q9HBH9)
MKNK2 (human), sequence (Q9HBH9 whole entry, looked up): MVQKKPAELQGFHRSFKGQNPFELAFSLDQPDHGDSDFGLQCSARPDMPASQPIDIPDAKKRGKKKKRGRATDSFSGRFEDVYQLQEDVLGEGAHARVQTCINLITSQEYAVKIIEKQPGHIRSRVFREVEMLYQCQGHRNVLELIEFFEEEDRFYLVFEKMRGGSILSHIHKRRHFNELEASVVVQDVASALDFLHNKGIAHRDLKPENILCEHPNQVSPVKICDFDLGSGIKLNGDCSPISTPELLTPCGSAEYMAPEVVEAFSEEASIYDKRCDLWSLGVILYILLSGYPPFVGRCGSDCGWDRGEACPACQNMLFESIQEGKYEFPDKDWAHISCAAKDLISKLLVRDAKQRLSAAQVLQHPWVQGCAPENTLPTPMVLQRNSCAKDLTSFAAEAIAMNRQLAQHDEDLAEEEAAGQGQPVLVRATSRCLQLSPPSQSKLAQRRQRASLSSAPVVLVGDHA

PIM3 (human) = PIM3 (human) (UniProt Q86V86)
MAPK9 (human) = MAPK9 (human) (UniProt P45984)
MAPK9 (human), sequence (P45984 whole entry, looked up): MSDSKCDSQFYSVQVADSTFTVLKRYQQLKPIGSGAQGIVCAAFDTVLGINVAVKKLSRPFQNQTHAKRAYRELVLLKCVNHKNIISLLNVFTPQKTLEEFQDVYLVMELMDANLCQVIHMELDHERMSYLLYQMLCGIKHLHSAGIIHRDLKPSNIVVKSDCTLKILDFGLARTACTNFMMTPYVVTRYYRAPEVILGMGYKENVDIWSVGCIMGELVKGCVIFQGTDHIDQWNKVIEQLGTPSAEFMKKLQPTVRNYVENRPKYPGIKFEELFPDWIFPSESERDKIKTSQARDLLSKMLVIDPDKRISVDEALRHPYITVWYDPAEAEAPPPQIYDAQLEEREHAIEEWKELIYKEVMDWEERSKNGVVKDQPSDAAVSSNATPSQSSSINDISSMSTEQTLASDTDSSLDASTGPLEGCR

MAPKAPK2 (human) = MAPKAPK2 (human) (UniProt P49137)
TTK (human) = TTK (human) (UniProt P33981)
DAPK1 (human) = DAPK1 (human) (UniProt P53355)
DAPK1 (human), sequence (P53355 whole entry, looked up): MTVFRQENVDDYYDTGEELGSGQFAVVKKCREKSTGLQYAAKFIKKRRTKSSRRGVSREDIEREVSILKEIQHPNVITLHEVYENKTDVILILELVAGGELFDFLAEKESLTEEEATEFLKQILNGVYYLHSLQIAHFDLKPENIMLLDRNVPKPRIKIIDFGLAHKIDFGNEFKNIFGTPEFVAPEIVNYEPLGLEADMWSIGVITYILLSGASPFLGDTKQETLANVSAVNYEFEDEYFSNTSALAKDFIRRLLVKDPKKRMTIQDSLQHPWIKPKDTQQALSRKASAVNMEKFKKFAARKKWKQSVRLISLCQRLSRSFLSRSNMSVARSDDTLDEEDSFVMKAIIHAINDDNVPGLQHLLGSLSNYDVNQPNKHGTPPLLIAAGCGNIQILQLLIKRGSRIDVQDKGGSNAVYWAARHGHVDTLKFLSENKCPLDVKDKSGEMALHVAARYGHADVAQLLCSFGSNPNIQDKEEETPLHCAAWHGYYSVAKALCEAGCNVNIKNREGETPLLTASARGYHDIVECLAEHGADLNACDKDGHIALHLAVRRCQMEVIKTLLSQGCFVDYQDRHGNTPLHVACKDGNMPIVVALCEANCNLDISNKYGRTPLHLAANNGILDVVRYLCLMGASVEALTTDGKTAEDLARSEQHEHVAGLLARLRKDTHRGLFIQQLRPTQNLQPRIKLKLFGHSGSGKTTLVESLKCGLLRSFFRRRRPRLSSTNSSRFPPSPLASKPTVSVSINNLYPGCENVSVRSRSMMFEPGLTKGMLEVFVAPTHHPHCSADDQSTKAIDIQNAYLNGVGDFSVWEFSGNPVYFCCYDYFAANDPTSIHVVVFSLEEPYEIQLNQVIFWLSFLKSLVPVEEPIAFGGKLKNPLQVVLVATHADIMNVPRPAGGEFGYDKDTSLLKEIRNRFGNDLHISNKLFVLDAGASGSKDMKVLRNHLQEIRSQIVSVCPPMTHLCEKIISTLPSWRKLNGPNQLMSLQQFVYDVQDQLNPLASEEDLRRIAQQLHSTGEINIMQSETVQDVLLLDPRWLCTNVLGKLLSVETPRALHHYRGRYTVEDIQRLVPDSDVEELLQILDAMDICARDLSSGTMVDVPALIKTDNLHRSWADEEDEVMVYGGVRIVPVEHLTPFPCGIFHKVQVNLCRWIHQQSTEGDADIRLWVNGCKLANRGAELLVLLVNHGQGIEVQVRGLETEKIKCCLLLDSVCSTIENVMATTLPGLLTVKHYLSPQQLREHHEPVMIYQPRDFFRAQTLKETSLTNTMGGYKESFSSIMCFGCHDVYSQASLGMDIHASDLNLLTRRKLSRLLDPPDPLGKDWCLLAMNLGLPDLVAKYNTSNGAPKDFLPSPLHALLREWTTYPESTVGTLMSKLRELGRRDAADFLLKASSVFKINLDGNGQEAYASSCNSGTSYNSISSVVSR

BTK (human) = BTK (human) (UniProt Q06187)
EEF2K (human) = EEF2K (human) (UniProt O00418)
MAP3K5 (human) = MAP3K5 (human) (UniProt Q99683)
MAP3K9 (human) = MAP3K9 (human) (UniProt P80192)
IKBKB (human) = IKBKB (human) (UniProt O14920)
MARK3 (human) = MARK3 (human) (UniProt P27448)
PKN2 (human) = PKN2 (human) (UniProt Q16513)
PAK6 (human) = PAK6 (human) (UniProt Q9NQU5)
PAK6 (human), sequence (Q9NQU5 whole entry, looked up): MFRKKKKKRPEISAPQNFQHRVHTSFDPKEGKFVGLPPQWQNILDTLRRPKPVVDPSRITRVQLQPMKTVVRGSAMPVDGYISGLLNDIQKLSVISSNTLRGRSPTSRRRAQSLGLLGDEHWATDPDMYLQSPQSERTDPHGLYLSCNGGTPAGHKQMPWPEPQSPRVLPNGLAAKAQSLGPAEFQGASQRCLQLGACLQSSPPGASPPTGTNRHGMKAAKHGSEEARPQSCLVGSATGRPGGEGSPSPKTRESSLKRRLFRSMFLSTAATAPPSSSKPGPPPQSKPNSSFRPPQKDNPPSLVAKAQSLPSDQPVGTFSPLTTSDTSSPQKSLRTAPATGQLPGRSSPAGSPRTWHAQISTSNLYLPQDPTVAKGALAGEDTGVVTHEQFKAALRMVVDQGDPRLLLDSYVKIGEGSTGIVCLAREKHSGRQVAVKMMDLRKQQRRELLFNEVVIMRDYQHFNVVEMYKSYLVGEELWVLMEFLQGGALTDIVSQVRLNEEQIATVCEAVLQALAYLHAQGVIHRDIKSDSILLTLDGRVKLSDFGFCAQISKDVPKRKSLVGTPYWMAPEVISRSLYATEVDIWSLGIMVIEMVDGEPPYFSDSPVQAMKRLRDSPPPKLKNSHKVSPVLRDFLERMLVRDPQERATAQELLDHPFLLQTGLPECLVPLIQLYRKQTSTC

EPHA4 (human) = EPHA4 (human) (UniProt P54764)
CSNK2A1 (human) = CSNK2A1 (human) (UniProt P68400)

NC1(c2ccc(-c3nc4ccn5c(=O)[nH]nc5c4cc3-c3ccccc3)cc2)CCC1
residual activity (MARK4 (human); compound 0.1 µM): 98% | residual activity (MARK4 (human); compound 1.0 µM): 102% | residual activity (MARK4 (human); compound 10.0 µM): 92% | residual activity ([1]; compound 0.1 µM): 84% | residual activity ([1]; compound 1.0 µM): 84% | residual activity ([1]; compound 10.0 µM): 84% | residual activity (CHEK1 (human); compound 0.1 µM): 96% | residual activity (CHEK1 (human); compound 1.0 µM): 78% | residual activity (CHEK1 (human); compound 10.0 µM): 45% | residual activity ([2]; compound 0.1 µM): 98% | residual activity ([2]; compound 1.0 µM): 94% | residual activity ([2]; compound 10.0 µM): 103% | residual activity (GCK (human); compound 0.1 µM): 108% | residual activity (GCK (human); compound 1.0 µM): 97% | residual activity (GCK (human); compound 10.0 µM): 85% | residual activity (CDK2 CCNA2 (human); compound 0.1 µM): 100% | residual activity (CDK2 CCNA2 (human); compound 1.0 µM): 84% | residual activity (CDK2 CCNA2 (human); compound 10.0 µM): 75% | residual activity (NEK6 (human); compound 0.1 µM): 106% | residual activity (NEK6 (human); compound 1.0 µM): 98% | residual activity (NEK6 (human); compound 10.0 µM): 90% | residual activity (STK3 (human); compound 0.1 µM): 79% | residual activity (STK3 (human); compound 1.0 µM): 97% | residual activity (STK3 (human); compound 10.0 µM): 94% | residual activity (RPS6KA5 KD1 KD2 (human); compound 0.1 µM): 84% | residual activity (RPS6KA5 KD1 KD2 (human); compound 1.0 µM): 90% | residual activity (RPS6KA5 KD1 KD2 (human); compound 10.0 µM): 76% | residual activity (MAP2K1 (human); compound 0.1 µM): 83% | residual activity (MAP2K1 (human); compound 1.0 µM): 72% | residual activity (MAP2K1 (human); compound 10.0 µM): 90% | residual activity (MAP2K2 (human); compound 0.1 µM): 103% | residual activity (MAP2K2 (human); compound 1.0 µM): 99% | residual activity (MAP2K2 (human); compound 10.0 µM): 90% | residual activity (MYLK (human); compound 0.1 µM): 87% | residual activity (MYLK (human); compound 1.0 µM): 85% | residual activity (MYLK (human); compound 10.0 µM): 72% | residual activity (TBK1 (human); compound 0.1 µM): 88% | residual activity (TBK1 (human); compound 1.0 µM): 102% | residual activity (TBK1 (human); compound 10.0 µM): 89% | residual activity (INSRR (human); compound 0.1 µM): 95% | residual activity (INSRR (human); compound 1.0 µM): 80% | residual activity (INSRR (human); compound 10.0 µM): 61% | residual activity (YES1 (human); compound 0.1 µM): 102% | residual activity (YES1 (human); compound 1.0 µM): 99% | residual activity (YES1 (human); compound 10.0 µM): 68% | residual activity (SRPK1 (human); compound 0.1 µM): 107% | residual activity (SRPK1 (human); compound 1.0 µM): 106% | residual activity (SRPK1 (human); compound 10.0 µM): 116% | residual activity (PIM1 (human); compound 0.1 µM): 102% | residual activity (PIM1 (human); compound 1.0 µM): 93% | residual activity (PIM1 (human); compound 10.0 µM): 68% | residual activity (PIM2 (human); compound 0.1 µM): 86% | residual activity (PIM2 (human); compound 1.0 µM): 105% | residual activity (PIM2 (human); compound 10.0 µM): 97% | residual activity (EPHB1 (human); compound 0.1 µM): 96% | residual activity (EPHB1 (human); compound 1.0 µM): 109% | residual activity (EPHB1 (human); compound 10.0 µM): 100% | residual activity (EPHB4 (human); compound 0.1 µM): 101% | residual activity (EPHB4 (human); compound 1.0 µM): 105% | residual activity (EPHB4 (human); compound 10.0 µM): 86% | residual activity (MKNK2 (human); compound 0.1 µM): 90% | residual activity (MKNK2 (human); compound 1.0 µM): 100% | residual activity (MKNK2 (human); compound 10.0 µM): 92% | residual activity (PIM3 (human); compound 0.1 µM): 89% | residual activity (PIM3 (human); compound 1.0 µM): 83% | residual activity (PIM3 (human); compound 10.0 µM): 51% | residual activity (MAPK9 (human); compound 0.1 µM): 83% | residual activity (MAPK9 (human); compound 1.0 µM): 94% | residual activity (MAPK9 (human); compound 10.0 µM): 97% | residual activity (MAPKAPK2 (human); compound 0.1 µM): 99% | residual activity (MAPKAPK2 (human); compound 1.0 µM): 110% | residual activity (MAPKAPK2 (human); compound 10.0 µM): 88% | residual activity (TTK (human); compound 0.1 µM): 106% | residual activity (TTK (human); compound 1.0 µM): 105% | residual activity (TTK (human); compound 10.0 µM): 80% | residual activity (DAPK1 (human); compound 0.1 µM): 85% | residual activity (DAPK1 (human); compound 1.0 µM): 90% | residual activity (DAPK1 (human); compound 10.0 µM): 48% | residual activity (BTK (human); compound 0.1 µM): 87% | residual activity (BTK (human); compound 1.0 µM): 96% | residual activity (BTK (human); compound 10.0 µM): 99% | residual activity (EEF2K (human); compound 0.1 µM): 101% | residual activity (EEF2K (human); compound 1.0 µM): 104% | residual activity (EEF2K (human); compound 10.0 µM): 109% | residual activity (MAP3K5 (human); compound 0.1 µM): 97% | residual activity (MAP3K5 (human); compound 1.0 µM): 87% | residual activity (MAP3K5 (human); compound 10.0 µM): 90% | residual activity (MAP3K9 (human); compound 0.1 µM): 110% | residual activity (MAP3K9 (human); compound 1.0 µM): 93% | residual activity (IKBKB (human); compound 0.1 µM): 112% | residual activity (IKBKB (human); compound 1.0 µM): 98% | residual activity (IKBKB (human); compound 10.0 µM): 89% | residual activity (MARK3 (human); compound 0.1 µM): 85% | residual activity (MARK3 (human); compound 1.0 µM): 99% | residual activity (MARK3 (human); compound 10.0 µM): 91% | residual activity (PKN2 (human); compound 0.1 µM): 95% | residual activity (PKN2 (human); compound 1.0 µM): 96% | residual activity (PKN2 (human); compound 10.0 µM): 92% | residual activity (PAK6 (human); compound 0.1 µM): 85% | residual activity (PAK6 (human); compound 1.0 µM): 100% | residual activity (PAK6 (human); compound 10.0 µM): 91% | residual activity (EPHA4 (human); compound 0.1 µM): 107% | residual activity (EPHA4 (human); compound 1.0 µM): 116% | residual activity (EPHA4 (human); compound 10.0 µM): 97% | residual activity (CSNK2A1 (human); compound 0.1 µM): 104% | residual activity (CSNK2A1 (human); compound 10.0 µM): 84%
